Laboratory results reported in patent US20220409562A1, “Treatment or Prevention of Ischaemic Stroke Reperfusion Injury” (Cambridge Enterprise Limited, priority 2019, published 2022).
“Also recorded” adds a separate entry of the source.

Tests used:
[1] = tested on: transient middle cerebral artery occlusion (MCAO) in C57Bl6J mice; assay: Transient middle cerebral artery occlusion (MCAO) model, infarct volume and cerebral blood flow; assay type: in vivo; settings: given i.v. for 20 minutes starting just prior to reperfusion; 45 min ischemia, 2 h reperfusion; vs saline/vehicle control
Excerpt: Male C57Bl6J mice, 6-8 weeks old, were anesthetized with 3% isoflurane and anaesthesia was maintained on 1.5-2% isoflurane. A Doppler flowmetry probe (Perimed, Sweden) was attached to the skull to continuously monitor the cerebral blood flow. Left common carotid artery (CCA) and left external carotid artery were exposed and permanently ligated. Left […] was clamped temporarily. Next, an incision was made on CCA and a filament with a silicon tip (0.22 mm in diameter, 2-3 mm in length, Doccol, USA) was inserted and guided forward into internal carotid artery until it reached middle cerebral artery (MCA). The occlusion of MCA was confirmed by seeing at least 70% drop in cerebral blood flow. […]
At the end of reperfusion, mice were sacrificed by cervical dislocation; brain was collected and sliced at 2 mm thicknesses and stained with 2% triphenyltetrazolium chloride in saline at 37 C for 10-15 min. […] The healthy tissue area (red-stained) in both hemispheres was measured using ImageJ. The infarct volume % was calculated by first calculating the volume of healthy tissue in each hemisphere (Σarea of each slice×thickness of slice), then by the formula: ((volume of healthy tissue in uninjured hemisphere −volume of healthy tissue in injured hemisphere) ÷volume of healthy tissue in uninjured hemisphere)×100. […]

ischemia = settings: administered prior to and throughout ischemia; cited from earlier work
[2] = tested on: C2Cl2 mouse myoblast cells; assay: Malonate uptake in vitro (LC-MS of cell extracts); assay type: in vitro ADME; settings: for malonate concentration within the cell: allowing for a cell volume of 260 mg protein/ml
Method: We first explored whether malonate could be taken up by cells in culture. C2Cl2 mouse myoblast cells were plated at 300,000 cells/well and adhered overnight. The next day, cells were treated with either DSM (a—0.25 mM; b—0.25, 1 or 5 mM) or untreated for 0 to 240 min before cooling plates on ice and rapidly washing 4 times with ice-cold PBS and placed on dry ice. Cells were extracted for mass spectrometry with 500 μl extraction buffer (50% methanol, 30% acetonitrile and 20% water) with 1 nmol ^13C-malonate internal standard centrifuged to remove insoluble debris.

[3] = Malonate uptake in vivo (tissue levels after tail vein bolus, LC-MS/MS); set-up: species or system C57/BL6 mice; settings: 160 mg/kg tail vein bolus, 5 min after injection, normoxic mouse
Method: To see if this uptake also occurred in vivo, we injected disodium malonate into a normoxic mouse by a bolus in the tail vein and measured the malonate levels in tissues 5 min later. C57/BL6 mice were tail vein injected with DSM (160 mg/kg) before cervical dislocation 5 min after the injection, tissues harvested and clamp frozen in liquid nitrogen. For tissue analysis, tissues were weighed and extracted in 25 μl/mg extraction buffer containing internal standard and homogenised in a Precellys 24 homogeniser. Homogenates were centrifuged to remove insoluble debris. Extracts were analysed by LC-MS/MS and the levels of malonate assessed by interpolation of a malonate standard curve.

SMILES	necrotic brain infarct volume [1]	protective effect (ischemia)	intracellular malonate levels ([2]; 5 mM DSM, after 5 min (FIG. 4b)) [nmol/mg protein]	malonate uptake into cells ([2]; 0.25, 1 or 5 mM, 0 to 240 min (FIG. 4b))	malonate concentration within the cell ([2]; after 5 min incubated with 250 μM)	malonate concentration within the cell ([2]; after 5 min incubated with 5 mM)	intracellular malonate levels ([2]; incubated with 250 μM disodium malonate (FIG. 4a))	tissue levels of malonate, brain [3]	tissue levels of malonate, heart [3]	tissue levels of malonate, kidney [3]	tissue levels of malonate, liver [3]
COC(=O)CC(=O)OC [DMM, dimethyl malonate]	no significant difference; also recorded: not effective	protective	–	–	–	–	–	–	–	–	–
O=C([O-])CC(=O)[O-].[Na+].[Na+] [DSM, disodium malonate]	decreased	–	~2	both dose and time-dependent	about 50	~500	0.2-0.4 nmol/mg protein	uptake	significant amounts	particularly high	significant amounts
